This assay has as its system KB. The assay can be described thus: Cytotoxicity against human KB cells. Type of assay: functional, cell-based.

We go through three molecules from ChEMBL document CHEMBL1159378, “Continuing studies on the cyanobacterium Lyngbya sp.: isolation and structure determination of 15-norlyngbyapeptin A and lyngbyabellin D” (J Nat Prod, 2003).

pIC50: −log10 of the molar value.

`CC[C@H](C)[C@@H](C(=O)N1CCC[C@H]1c1nccs1)N(C)C(=O)[C@H](CC(C)C)N(C)C(=O)[C@H](Cc1ccc(O)cc1)N(C)C(=O)/C=C(\C)OC` [15-NORLYNGBYAPEPTIN A]: the pIC50 was 5.89.

Molecule `CCCC(=O)N[C@@H](C(C)C)[C@H](CC(=O)OC[C@@H](O)c1nc(C(=O)O[C@@H](CCCC(C)(Cl)Cl)[C@@H](C)C(=O)O[C@@H](c2nc(C(=O)OC)cs2)[C@](C)(O)CC)cs1)OC(C)=O` [LYNGBYABELLIN D] had a pIC50 of 7.00.

`CC[C@H](C)[C@@H](C(=O)N1CCC[C@H]1c1nccs1)N(C)C(=O)[C@H](CC(C)C)N(C)C(=O)[C@H](Cc1ccc(OC)cc1)N(C)C(=O)/C=C(\C)OC` [LYNGBYAPEPTIN A] gave a pIC50 of under 5.30.
